# Laboratory results: patent US20250197372A1 (priority 2020, published 2025)
# Molecular target: T1, recombinant human GBA (beta-glucocerebrosidase) (Homo sapiens, UniProt P04062)
# T1 sequence (P04062 40-536): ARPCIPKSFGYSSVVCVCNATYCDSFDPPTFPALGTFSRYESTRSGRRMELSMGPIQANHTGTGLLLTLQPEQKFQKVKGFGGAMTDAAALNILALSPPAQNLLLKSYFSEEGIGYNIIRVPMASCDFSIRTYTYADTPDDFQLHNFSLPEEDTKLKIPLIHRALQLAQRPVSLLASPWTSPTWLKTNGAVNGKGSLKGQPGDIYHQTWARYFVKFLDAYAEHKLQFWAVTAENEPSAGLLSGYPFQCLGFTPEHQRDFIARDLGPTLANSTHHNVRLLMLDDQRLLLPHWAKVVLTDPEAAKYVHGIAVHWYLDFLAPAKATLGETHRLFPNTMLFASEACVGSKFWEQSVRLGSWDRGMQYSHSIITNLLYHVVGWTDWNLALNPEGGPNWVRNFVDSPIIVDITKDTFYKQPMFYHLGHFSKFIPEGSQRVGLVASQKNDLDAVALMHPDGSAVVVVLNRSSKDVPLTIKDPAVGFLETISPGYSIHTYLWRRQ
# Experiment: Beta-glucocerebrosidase (GBA, glucosylceramidase) assay (4-methylumbelliferyl-beta-D-pyranoside substrate, fluorescence)
# Type: biochemical
# Procedure: Beta-glucocerebrosidase (GBA, also referred to glucosylceramidase): To analyze inhibitory effects of a test compound, commercially available recombinant human GBA was incubated with multiple dilutions of test compound for 60 minutes at 37° C. 4-methylumbelliferyl-beta-D-pyranoside was then introduced to the mixture as substrate. Following incubation for 60 minutes at 37° C., 1,4-methyllumbelliferone was generated, and the reaction was stopped with the stop solution (0.5 M glycine; 0.3 M NaOH, pH 10). 1,4-methyllumbelliferone was detected by fluorescence (excitation at 365 nm, emission at 440 nm). Relative fluorescence compared to untreated enzymatic activity and test compound concentration is then plotted as a function of percent inhibition. The IC50 was determined using a 4-PL curve fit as the measure of relative inhibitory activity of each test compound (see Table 3).
row,SMILES,IC50 [µM]
1,"N#Cc1cc(NCc2cccc(CN3C[C@H](O)[C@@H](O)[C@H](O)[C@H]3CO)c2)cc(C2=COCCO2)c1 [Compound 1044, 3-(5,6-dihydro-1,4-dioxin-2-yl)-5-{[(3-{[(2R,3R,4R,5S)-3,4,5-trihydroxy-2-(hydroxymethyl)piperidin-1-yl]methyl}phenyl)methyl]amino}benzonitrile]",53.2
2,"COC(OC)c1cc(NCCCCCCN2C[C@H](O)[C@@H](O)[C@H](O)[C@H]2CO)cc(-c2ncccn2)c1 [Compound 1124, (2R,3R,4R,5S)-1-(6-{[3-(dimethoxymethyl)-5-(pyrimidin-2-yl)phenyl]amino}hexyl)-2-(hydroxymethyl)piperidine-3,4,5-triol]",3
3,"[N-]=[N+]=Nc1ccc(NCC/C=C/CCN2C[C@H](O)[C@@H](O)[C@H](O)[C@H]2CO)c([N+](=O)[O-])c1 [Compound 1260, (2R,3R,4R,5S)-1-[(3E)-6-[(4-azido-2-nitrophenyl)amino]hex-3-en-1-yl]-2-(hydroxymethyl)piperidine-3,4,5-triol]",1.56
4,"N#Cc1cc(NCCCCCCN2C[C@H](O)[C@@H](O)[C@H](O)[C@H]2CO)cc(-c2ncccn2)c1 [Compound 1130, 3-(pyrimidin-2-yl)-5-({6-[(2R,3R,4R,5S)-3,4,5-trihydroxy-2-(hydroxymethyl)piperidin-1-yl]hexyl}amino)benzonitrile]",0.974
5,"Cc1cc(NCc2cccc(CN3C[C@H](O)[C@@H](O)[C@H](O)[C@H]3CO)c2)cc(-c2ncccn2)c1 [Compound 1035, (2R,3R,4R,5S)-2-(hydroxymethyl)-1-{[3-({[3-methyl-5-(pyrimidin-2-yl)phenyl]amino}methyl)phenyl]methyl}piperidine-3,4,5-triol]",> 100
6,"O=Cc1cc(NCCCCCCN2C[C@H](O)[C@@H](O)[C@H](O)[C@H]2CO)cc(-c2ncccn2)c1 [Compound 1129, 3-(pyrimidin-2-yl)-5-({6-[(2R,3R,4R,5S)-3,4,5-trihydroxy-2-(hydroxymethyl)piperidin-1-yl]hexyl}amino)benzaldehyde]",2.73
7,"COc1cc(NCCCCCCN2C[C@H](O)[C@@H](O)[C@H](O)[C@H]2CO)cc(C2CCCO2)c1 (stereo partly drawn) [Compound 1146, (2R,3R,4R,5S)-2-(hydroxymethyl)-1-(6-{[3-methoxy-5-(oxolan-2-yl)phenyl]amino}hexyl)piperidine-3,4,5-triol]",2.17
8,"CS(=O)(=O)c1cc(NCc2cccc(CN3C[C@H](O)[C@@H](O)[C@H](O)[C@H]3CO)c2)cc(-c2cccnn2)c1 [Compound 1040, (2R,3R,4R,5S)-2-(hydroxymethyl)-1-{[3-({[3-methanesulfonyl-5-(pyridazin-3-yl)phenyl]amino}methyl)phenyl]methyl}piperidine-3,4,5-triol]",> 100
9,"COc1cc(CN2CCCO2)cc(NCCCCCCN2C[C@H](O)[C@@H](O)[C@H](O)[C@H]2CO)c1 [Compound 1182, (2R,3R,4R,5S)-2-(hydroxymethyl)-1-[6-({3-methoxy-5-[(1,2-oxazolidin-2-yl)methyl]phenyl}amino)hexyl]piperidine-3,4,5-triol]",6.13
10,"COc1cc(NCCCCCCN2C[C@H](O)[C@@H](O)[C@H](O)[C@H]2CO)cc(-c2ccccc2)c1 [Compound 1150, (2R,3R,4R,5S)-2-(hydroxymethyl)-1-[6-({5-methoxy-[1,1′-biphenyl]-3-yl}amino)hexyl]piperidine-3,4,5-triol]",0.193
11,"O=[N+]([O-])c1cc(N2CCOCC2)ccc1NCc1cccc(CN2C[C@H](O)[C@@H](O)[C@H](O)[C@H]2CO)c1 [Compound 1067, (2R,3R,4R,5S)-2-(hydroxymethyl)-1-{[3-({[4-(morpholin-4-yl)-2-nitrophenyl]amino}methyl)phenyl]methyl}piperidine-3,4,5-triol]",3.72
12,"COc1cc(C#N)cc(NCCc2ccc(CCN3C[C@H](O)[C@@H](O)[C@H](O)[C@H]3CO)cc2)c1 [Compound 1133, 3-methoxy-5-{[2-(4-{2-[(2R,3R,4R,5S)-3,4,5-trihydroxy-2-(hydroxymethyl)piperidin-1-yl]ethyl}phenyl)ethyl]amino}benzonitrile]",4.5
13,"Cc1cc(NCc2cccc(CN3C[C@H](O)[C@@H](O)[C@H](O)[C@H]3CO)n2)cc(-c2ccc[nH]2)c1 [Compound 1335, (2R,3R,4R,5S)-2-(hydroxymethyl)-1-{[6-({[3-methyl-5-(1H-pyrrol-2-yl)phenyl]amino}methyl)pyridin-2-yl]methyl}piperidine-3,4,5-triol]",21.5
14,"[N-]=[N+]=Nc1ccc(NCc2cc(CCN3C[C@H](O)[C@@H](O)[C@H](O)[C@H]3CO)cs2)c([N+](=O)[O-])c1 [Compound 1174, (2R,3R,4R,5S)-1-[2-(5-{[(4-azido-2-nitrophenyl)amino]methyl}thiophen-3-yl)ethyl]-2-(hydroxymethyl)piperidine-3,4,5-triol]",0.805
15,"CN(C)C(=O)c1cc(NCCCCCCN2C[C@H](O)[C@@H](O)[C@H](O)[C@H]2CO)cc(-c2ncccn2)c1 [Compound 1126, N,N-dimethyl-3-(pyrimidin-2-yl)-5-({6-[(2R,3R,4R,5S)-3,4,5-trihydroxy-2-(hydroxymethyl)piperidin-1-yl]hexyl}amino)benzamide]",7.04
16,"OC[C@@H]1[C@@H](O)[C@H](O)[C@@H](O)CN1CCCCCCNc1cc(-c2ncccn2)cc(C(F)(F)F)c1 [Compound 1131, (2R,3R,4R,5S)-2-(hydroxymethyl)-1-(6-{[3-(pyrimidin-2-yl)-5-(trifluoromethyl)phenyl]amino}hexyl)piperidine-3,4,5-triol]",0.308
17,"COc1cc(NCCCCCCN2C[C@H](O)[C@@H](O)[C@H](O)[C@H]2CO)cc(-c2cnccn2)c1 [Compound 1197, (2R,3R,4R,5S)-2-(hydroxymethyl)-1-(6-{[3-methoxy-5-(pyrazin-2-yl)phenyl]amino}hexyl)piperidine-3,4,5-triol]",2.07
18,"CS(=O)(=O)c1cc(NCc2ccc(CN3C[C@H](O)[C@@H](O)[C@H](O)[C@H]3CO)cc2)cc(-c2cccnn2)c1 [Compound 1058, (2R,3R,4R,5S)-2-(hydroxymethyl)-1-{[4-({[3-methanesulfonyl-5-(pyridazin-3-yl)phenyl]amino}methyl)phenyl]methyl}piperidine-3,4,5-triol]",> 100
19,"OC[C@@H]1[C@@H](O)[C@H](O)[C@@H](O)CN1CCCCCCNc1cc(-c2ncccn2)cc(C2CC2)c1 [Compound 1009, (2R,3R,4R,5S)-1-(6-{[3-cyclopropyl-5-(pyrimidin-2-yl)phenyl]amino}hexyl)-2-(hydroxymethyl)piperidine-3,4,5-triol]",2.59
20,"OC[C@@H]1[C@@H](O)[C@H](O)[C@@H](O)CN1CCCCCCNc1cc(-c2cccnn2)cc(C2CC2)c1 [Compound 1008, (2R,3R,4R,5S)-1-(6-{[3-cyclopropyl-5-(pyridazin-3-yl)phenyl]amino}hexyl)-2-(hydroxymethyl)piperidine-3,4,5-triol]",2.33
21,"OC[C@@H]1[C@@H](O)[C@H](O)[C@@H](O)CN1CCCCCCNc1cc(Cl)cc(CN2CCCO2)c1 [Compound 1183, (2R,3R,4R,5S)-1-[6-({3-chloro-5-[(1,2-oxazolidin-2-yl)methyl]phenyl}amino)hexyl]-2-(hydroxymethyl)piperidine-3,4,5-triol]",5.62
22,"[N-]=[N+]=Nc1ccc(NCCc2ccc(CCN3C[C@@H](O)[C@H](O)[C@@H](O)[C@@H]3CO)c3ccccc23)c([N+](=O)[O-])c1 (stereo in doubt) [Compound 1178, (2S,3S,4S,5R)-1-[2-(4-{2-[(4-azido-2-nitrophenyl)amino]ethyl}naphthalen-1-yl)ethyl]-2-(hydroxymethyl)piperidine-3,4,5-triol]",5.9
23,"COc1cc(NCCc2ccc(CCN3C[C@H](O)[C@@H](O)[C@H](O)[C@H]3CO)cc2)cc(-c2ccco2)c1 [Compound 1153, (2R,3R,4R,5S)-1-{2-[4-(2-{[3-(furan-2-yl)-5-methoxy-phenyl]amino}ethyl)phenyl]ethyl}-2-(hydroxymethyl)piperidine-3,4,5-triol]",1.09
24,"[N-]=[N+]=Nc1ccc(NCCn2cc(CCN3C[C@H](O)[C@@H](O)[C@H](O)[C@H]3CO)c3ccccc32)c([N+](=O)[O-])c1 [Compound 1177, (2R,3R,4R,5S)-1-[2-(1-{2-[(4-azido-2-nitrophenyl)amino]ethyl}-1H-indol-3-yl)ethyl]-2-(hydroxymethyl)piperidine-3,4,5-triol]",3.32
25,"COc1cc(NCCc2ccc(CCN3C[C@H](O)[C@@H](O)[C@H](O)[C@H]3CO)cc2)cc(-c2cccnn2)c1 [Compound 1157, (2R,3R,4R,5S)-2-(hydroxymethyl)-1-{2-[4-(2-{[3-methoxy-5-(pyridazin-3-yl)phenyl]amino}ethyl)phenyl]ethyl}piperidine-3,4,5-triol]",4.59
26,"O=[N+]([O-])c1cc(-c2ccccc2)ccc1NCCCCCCN1C[C@H](O)[C@@H](O)[C@H](O)[C@H]1CO [Compound 1138, (2R,3R,4R,5S)-2-(hydroxymethyl)-1-[6-({3-nitro-[1,1′-biphenyl]-4-yl}amino)hexyl]piperidine-3,4,5-triol]",0.018
